This passage reports IC50 results from patent publication US7501430B2 (ArQule, Inc., priority 2006, dated 2009).

Read-outs that look alike come from different tables or passages of the source. Bounds are passed on as bounds.

This assay deals with T1, mutant B-RAF (Homo sapiens, UniProt P15056, V600E).
T1 construct: purchased Upstate (Charlottesville, Va.)
Kind of assay: RAF biochemical assay (MEK-1 phosphorylation, anti-phospho MEK1/2 detection). Summed up: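 Detection is by ELISA: after a 30 min room-temperature reaction, plate-captured GST-MEK-1 is probed with anti-phospho MEK1/2, then an AP-tagged secondary antibody with fluorescent Attophos read-out.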

[1] abbreviates: read-out: Mutant B-RAF IC50 (uM) or % inhibition.

T1 sequence (P15056 whole entry V600E): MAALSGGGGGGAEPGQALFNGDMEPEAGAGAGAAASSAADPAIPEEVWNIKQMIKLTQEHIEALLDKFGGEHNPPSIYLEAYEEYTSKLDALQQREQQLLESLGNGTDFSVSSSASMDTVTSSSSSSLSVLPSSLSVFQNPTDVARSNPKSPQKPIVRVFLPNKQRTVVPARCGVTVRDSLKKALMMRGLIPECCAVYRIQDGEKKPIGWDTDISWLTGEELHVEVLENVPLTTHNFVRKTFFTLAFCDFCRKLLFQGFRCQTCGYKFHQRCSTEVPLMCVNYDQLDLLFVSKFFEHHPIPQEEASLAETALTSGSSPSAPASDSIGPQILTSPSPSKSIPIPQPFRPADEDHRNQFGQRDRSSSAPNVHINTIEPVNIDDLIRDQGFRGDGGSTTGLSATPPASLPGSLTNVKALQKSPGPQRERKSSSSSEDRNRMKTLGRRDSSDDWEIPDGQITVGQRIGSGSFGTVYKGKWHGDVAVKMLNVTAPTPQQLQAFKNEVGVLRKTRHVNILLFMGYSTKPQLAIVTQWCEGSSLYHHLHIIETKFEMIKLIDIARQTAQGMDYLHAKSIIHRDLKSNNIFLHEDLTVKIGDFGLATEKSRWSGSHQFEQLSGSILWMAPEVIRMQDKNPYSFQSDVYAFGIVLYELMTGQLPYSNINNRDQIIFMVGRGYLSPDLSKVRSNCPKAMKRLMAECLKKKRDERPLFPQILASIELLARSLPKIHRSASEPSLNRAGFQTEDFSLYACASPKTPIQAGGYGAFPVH

In general, IC50 refers to the point on the concentration scale where inhibition reaches its midpoint. Regarding `O=S(=O)(c1ccccc1)N1CCC[C@@H](Nc2nccc(-c3c(-c4cccc(O)c4)nc4sccn34)n2)C1` [Example 372, 3-[5-(2-{[(3R)-1-(phenylsulfonyl)piperidin-3-yl]amino}pyrimidin-4-yl)imidazo[2,1-b][1,3]thiazol-6-yl]phenol], the concentration for half-maximal inhibition (IC50) (read-out: Mutant B-RAF IC50) was 0.003 µM. In the case of `CCS(=O)(=O)N1CCC[C@@H](Nc2nccc(-c3c(-c4cccc(O)c4)nc4sccn34)n2)C1` [Example 373, 3-[5-(2-{[(3R)-1-(ethylsulfonyl)piperidin-3-yl]amino}pyrimidin-4-yl)imidazo[2,1-b][1,3]thiazol-6-yl]phenol], the half-inhibitory concentration (IC50) (read-out: Mutant B-RAF IC50) was more than 3 µM. Still for that read-out and setting: next, `CC(=O)Nc1ccc(S(=O)(=O)N2CCC[C@@H](Nc3nccc(-c4c(-c5cccc(O)c5)nc5sccn45)n3)C2)cc1` [Example 374, N-(4-{[(3R)-3-({4-[6-(3-hydroxyphenyl)imidazo[2,1-b][1,3]thiazol-5-yl]pyrimidin-2-yl}amino)piperidin-1-yl]sulfonyl}phenyl)acetamide]: 0.001 µM; `O=S(=O)(CC(F)(F)F)N1CCC[C@@H](Nc2nccc(-c3c(-c4cccc(O)c4)nc4sccn34)n2)C1` [Example 375, 3-{5-[2-({(3R)-1-[(2,2,2-trifluoroethyl)sulfonyl]piperidin-3-yl}amino)pyrimidin-4-yl]imidazo[2,1-b][1,3]thiazol-6-yl}phenol]: more than 3 µM; `Cn1ccc(S(=O)(=O)N2CCC[C@@H](Nc3nccc(-c4c(-c5cccc(O)c5)nc5sccn45)n3)C2)n1` [Example 376, 3-{5-[2-({(3R)-1-[(1-methyl-1H-pyrazol-3-yl)sulfonyl]piperidin-3-yl}amino)pyrimidin-4-yl]imidazo[2,1-b][1,3]thiazol-6-yl}phenol]: 0.001 µM.

`NS(=O)(=O)Oc1cccc(-c2nc3sccn3c2-c2ccnc(N[C@@H]3CCCN(S(=O)(=O)c4ccc(Cl)cc4)C3)n2)c1` [Example 377, 3-{5-[2-({(3R)-1-{(4-chlorophenyl)sulfonyl]piperidin-3-yl}amino)pyrimidin-4-yl]imidazo[2,1-b][1,3]thiazol-6-yl}phenyl sulfamate]: the half-maximal inhibitory concentration (IC50) (read-out: Mutant B-RAF IC50) was found to be 0.085 µM. `O=S(=O)(c1ccc(Cl)cc1)N1CCC[C@@H](Nc2nccc(-c3c(-c4ccc(CO)cc4)nc4sccn34)n2)C1` [Example 378, (4-{5-[2-({(3R)-1-[(4-chlorophenyl)sulfonyl]piperidin-3-yl}amino)pyrimidin-4-yl]imidazo[2,1-b][1,3]thiazol-6-yl}phenyl)methanol]: the half-inhibitory concentration (IC50) (read-out: Mutant B-RAF IC50) amounted to 2.26 µM. For the compound `NC(=O)c1ccc(-c2nc3sccn3c2-c2ccnc(N[C@@H]3CCCN(S(=O)(=O)c4ccc(Cl)cc4)C3)n2)cc1` [Example 379, 4-{5-[2-({(3R)-1-[(4-chlorophenyl)sulfonyl]piperidin-3-yl}amino)pyrimidin-4-yl]imidazo[2,1-b][1,3]thiazol-6-yl}benzamide], for the setting “read-out: Mutant B-RAF IC50”, the IC50 was determined as 2.67 µM. For `NS(=O)(=O)Oc1cccc(-c2nc3occn3c2-c2ccnc(N[C@@H]3CCCN(S(=O)(=O)c4ccc(Cl)cc4)C3)n2)c1` [Example 380, 3-{5-[2-({(3R)-1-[(4-chlorophenyl)sulfonyl]piperidin-3-yl}amino)pyrimidin-4-yl]imidazo[2,1-b][1,3]oxazol-6-yl}phenyl sulfamate], the IC50 (read-out: Mutant B-RAF IC50) is 1.59 µM. Consider `O=S(=O)(c1nnc[nH]1)N1CCC[C@@H](Nc2nccc(-c3c(-c4cccc(O)c4)nc4sccn34)n2)C1` [Example 381, 3-[5-(2-{[(3R)-1-(4H-1,2,4-tri-azol-3-ylsulfonyl)piperidin-3-yl]amino}pyrimidin-4-yl)imidazo[2,1-b][1,3]thiazol-6-yl]phenol], for which the half-maximal inhibitory concentration (IC50) (read-out: Mutant B-RAF IC50) came out at 0.015 µM. In the case of `O=C(O)c1cccc(-c2nc3sccn3c2-c2ccnc(N[C@@H]3CCCN(S(=O)(=O)c4ccc(Cl)cc4)C3)n2)c1` [Example 382, 3-{5-[2-({(3R)-1-[(4-chlorophenyl)sulfonyl]piperidin-3-yl}amino)pyrimidin-4-yl]imidazo[2,1-b][1,3]thiazol-6-yl}benzoic acid], the IC50 (read-out: Mutant B-RAF IC50) came to 1.19 µM. On to `CC(=O)c1cccc(-c2nc3sccn3c2-c2ccnc(N[C@@H]3CCCN(S(=O)(=O)c4ccc(Cl)cc4)C3)n2)c1` [Example 384, 1-(3-{5-[2-({(3R)-1-[(4-chlorophenyl)sulfonyl]piperidin-3-yl)amino)pyrimidin-4-yl]imidazo[2,1-b][1,3]thiazol-6-yl}phenyl)ethanone], for which the concentration for half-maximal inhibition (IC50) (read-out: Mutant B-RAF IC50) stood at 1.3 µM. As to `O=Cc1ccc(-c2nc3sccn3c2-c2ccnc(N[C@@H]3CCCN(S(=O)(=O)c4ccc(Cl)cc4)C3)n2)cc1` [Example 385, 4-{5-[2-({(3R)-1-[(4-chlorophenyl)sulfonyl]piperidin-3-yl}amino)pyrimidin-4-yl]imidazo[2,1-b][1,3]thiazol-6-yl}benzaldehyde], under “read-out: Mutant B-RAF IC50”, the concentration for half-maximal inhibition (IC50) worked out at 0.876 µM. Take `NC(=O)Oc1cccc(-c2nc3occn3c2-c2ccnc(N[C@@H]3CCCN(S(=O)(=O)c4ccc(Cl)cc4)C3)n2)c1` [Example 386, 3-{5-[2-({(3R)-1-[(4-chlorophenyl)sulfonyl]piperidin-3-yl}amino)pyrimidin-4-yl]imidazo[2,1-b][1,3]oxazol-6-yl}phenyl carbamate]: the IC50 (read-out: Mutant B-RAF IC50) stood at 0.109 µM.

Take `CCCOC(=O)N1CCC(Nc2nccc(-c3c(-c4cccc(O)c4)nc4sccn34)n2)CC1` [Example 387, propyl 4-({4-[6-(3-hydroxyphenyl)imidazo[2,1-b][1,3]thiazol-5-yl]pyrimidin-2-yl}amino)piperidine-1-carboxylate]: for the setting “read-out: Mutant B-RAF IC50”, the half-maximal inhibitory concentration (IC50) is more than 3 µM. Turning to `O=S(=O)(c1cccs1)N1CCC[C@@H](Nc2nccc(-c3c(-c4cccc(O)c4)nc4occn34)n2)C1` [Example 388, 3-[5-(2-{[(3R)-1-(2-thienylsulfonyl)piperidin-3-yl]amino}pyrimidin-4-yl)imidazo[2,1-b][1,3]oxazol-6-yl]phenol], the IC50 (read-out: Mutant B-RAF IC50) amounted to 0.009 µM.

As to `C/C(=N\O)c1cccc(-c2nc3sccn3c2-c2ccnc(N[C@@H]3CCCN(S(=O)(=O)c4ccc(Cl)cc4)C3)n2)c1` [Example 389, (1E)-1-(3-{5-[2-({(3R)-1-[(4-chlorophenyl)sulfonyl]piperidin-3-yl}amino)pyrimidin-4-yl]imidazo[2,1-b][1,3]thiazol-6-yl}phenyl)ethanone oxime], the 50% inhibitory concentration (IC50) (read-out: Mutant B-RAF IC50) is 0.034 µM.

Turning to `O=Cc1cccc(-c2nc3sccn3c2-c2ccnc(N[C@@H]3CCCN(S(=O)(=O)c4ccc(Cl)cc4)C3)n2)c1` [Example 390, 3-{5-[2-({(3R)-1-[(4-chlorophenyl)sulfonyl]piperidin-3-yl}amino)pyrimidin-4-yl]imidazo[2,1-b][1,3]thiazol-6-yl}benzaldehyde], for the setting “read-out: Mutant B-RAF IC50”, the IC50 was 0.28 µM. With `O=S(=O)(Cc1ccccc1)N1CCC[C@@H](Nc2nccc(-c3c(-c4cccc(O)c4)nc4occn34)n2)C1` [Example 391, 3-[5-(2-{[(3R)-1-(benzylsulfonyl)piperidin-3-yl]amino}pyrimidin-4-yl)imidazo[2,1-b][1,3]oxazol-6-yl]phenol], where the note is “read-out: Mutant B-RAF IC50”, the IC50 was more than 3 µM. Take `O=S(=O)(c1ccc(Cl)cc1)N1CCC[C@@H](Nc2nccc(-c3c(-c4ccc(/C=N/O)cc4)nc4sccn34)n2)C1` [Example 392, 4-{5-[2-({(3R)-1-[(4-chlorophenyl)sulfonyl]piperidin-3-yl}amino)pyrimidin-4-yl]imidazo[2,1-b][1,3]thiazol-6-yl}benzaldehyde oxime]: the IC50 (read-out: Mutant B-RAF IC50) stood at 0.698 µM. On to `CCCS(=O)(=O)N1CCC[C@@H](Nc2nccc(-c3c(-c4cccc(O)c4)nc4occn34)n2)C1` [Example 393, 3-[5-(2-{[(3R)-1-(propylsulfonyl)piperidin-3-yl]amino}pyrimidin-4-yl)imidazo[2,1-b][1,3]oxazol-6-yl]phenol], for which, for the setting “read-out: Mutant B-RAF IC50”, the IC50 is 0.33 µM. In the case of `COC(=O)N1CCC(Nc2nccc(-c3c(-c4cccc(O)c4)nc4sccn34)n2)CC1` [Example 394, methyl 4-({4-[6-(3-hydroxyphenyl)imidazo[2,1-b][1,3]thiazol-5-yl]pyrimidin-2-yl}amino)piperidine-1-carboxylate], the IC50 (read-out: Mutant B-RAF IC50) was more than 3 µM.

For `O=S(=O)(c1ccc(Cl)cc1)N1CCC[C@@H](Nc2nccc(-c3c(-c4cccc(/C=N\O)c4)nc4sccn34)n2)C1` [Example 395, 3-{5-[2-({(3R)-1-[(4-chlorophenyl)sulfonyl]piperidin-3-yl}amino)pyrimidin-4-yl]imidazo[2,1-b][1,3]thiazol-6-yl}benzaldehyde oxime], the half-maximal inhibitory concentration (IC50) (read-out: Mutant B-RAF IC50) was 0.018 µM. In the case of `O=S(=O)(c1ccc(Cl)cc1)N1CCC[C@@H](Nc2nccc(-c3c(-c4cccc(CO)c4)nc4sccn34)n2)C1` [Example 396, (3-{5-[2-({(3R)-1-[(4-chlorophenyl)sulfonyl]piperidin-3-yl}amino)pyrimidin-4-yl]imidazo[2,1-b][1,3]thiazol-6-yl}phenyl)methanol], the 50% inhibitory concentration (IC50) (read-out: Mutant B-RAF IC50) was 1.6 µM. Regarding `O=S(=O)(C1CC1)N1CCC[C@@H](Nc2nccc(-c3c(-c4cccc(O)c4)nc4occn34)n2)C1` [Example 397, 3-[5-(2-{[(3R)-1-(cyclopropylsulfonyl)piperidin-3-yl]amino}pyrimidin-4-yl)imidazo[2,1-b][1,3]oxazol-6-yl]phenol], the IC50 under setting [1] is 2.3 µM. As to `O=S(=O)(c1ccccc1)N1CCC[C@@H](Nc2nccc(-c3c(-c4cccc(O)c4)nc4occn34)n2)C1` [Example 398, 3-[5-(2-{[(3R)-1-(phenylsulfonyl)piperidin-3-yl]amino}pyrimidin-4-yl)imidazo[2,1-b][1,3]oxazol-6-yl]phenol], under setting [1], the IC50 was 0.042 µM. With `O=S(=O)(c1ccsc1)N1CCC[C@@H](Nc2nccc(-c3c(-c4cccc(O)c4)nc4occn34)n2)C1` [Example 399, 3-[5-(2-{[(3R)-1-(3-thienylsulfonyl)piperidin-3-yl]amino}pyrimidin-4-yl)imidazo[2,1-b][1,3]oxazol-6-yl]phenol], the IC50 under setting [1] is more than 3 µM. On the same count and under the same terms, the same measure for `CC(=O)c1ccc(-c2nc3sccn3c2-c2ccnc(N[C@@H]3CCCN(S(=O)(=O)c4ccc(Cl)cc4)C3)n2)cc1` [Example 400, 1-(4-{5-[2-({(3R)-1-[(4-chlorophenyl)sulfonyl]piperidin-3-yl}amino)pyrimidin-4-yl]imidazo[2,1-b][1,3]thiazol-6-yl}phenyl)ethanone]: 1.3 µM.
